Source: ChEMBL document CHEMBL1201862, “PubChem BioAssay data set” (2004)
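Following 48 hours of exposure in 96-well plates, responses at five concentrations were used to interpolate endpoints linearly. Abbreviation: GI50, concentration required for 50% inhibition of growth.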 Active and inactive are the calls of the source. No stated cut-off is given here; in the data, active = GI50 up to about 1.1 µM and inactive = higher.

Columns and labels:
Experiment in all cases: NCI-60 cell line screen, 48 h
[1] = system: SN12C
[2] = system: Hs-578T
[3] = system: SK-MEL-5
[4] = system: DU-145
[5] = system: SF-295
[6] = system: SF-268
[7] = system: SK-MEL-28
[8] = system: RXF 393
[9] = system: Malme-3M
[10] = system: T47D
[11] = system: MOLT-4
[12] = system: HCT-15
[13] = system: NCI-H226
[14] = system: HOP-92
[15] = system: SNB-19
[16] = system: COLO 205
[17] = system: OVCAR-3
[18] = system: OVCAR-4
[19] = system: UO-31

Row | SMILES | GI50 [1] | GI50 [2] | GI50 [3] | GI50 [4] | GI50 [5] | GI50 [6] | GI50 [7] | GI50 [8] | GI50 [9] | GI50 [10] | GI50 [11] | GI50 [12] [µM] | GI50 [13] | GI50 [14] | GI50 [15] | GI50 [16] | GI50 [17] | GI50 [18] | GI50 [19]
1 | c1ccc2c3ccn4ccc5c6ccccc6[nH]c5c4c-3nc2c1 | 0.735 µM (active) | 1.6 µM (inactive) | 1.46 µM (inactive) | 1.43 µM (inactive) | 1.46 µM (inactive) | 1.24 µM (inactive) | 1.7 µM (inactive) | 1.32 µM (inactive) | 1.65 µM (inactive) | 1.15 µM (inactive) | 1.42 µM (inactive) | 0.344 | 1.67 µM (inactive) | 1.43 µM (inactive) | 1.49 µM (inactive) | 0.583 µM (active) | 0.236 µM (active) | 0.394 µM (active) | 1.39 µM (inactive)
2 | Cc1ccc(C)c(C(=N)c2ccccc2Cc2ccccc2)c1 | 17.3 µM (inactive) | 5.42 µM (inactive) | 15.5 µM (inactive) | 22.9 µM (inactive) | 20 µM (inactive) | 18.6 µM (inactive) | 26.4 µM (inactive) | 20 µM (inactive) | 13 µM (inactive) | 21 µM (inactive) | 15.1 µM (inactive) | 24.7 | 16.4 µM (inactive) | 17 µM (inactive) | 42.6 µM (inactive) | 26.9 µM (inactive) | 13.3 µM (inactive) | 19.4 µM (inactive) | 27.3 µM (inactive)
3 | O=S1(=O)N=C(SCc2ccccc2)N(c2ccccc2)c2ccncc21 | 42.2 µM (inactive) | 31.7 µM (inactive) | 28.4 µM (inactive) | 30.5 µM (inactive) | 34 µM (inactive) | 36.6 µM (inactive) | 91.2 µM (inactive) | 26.6 µM (inactive) | 49.5 µM (inactive) | 29.2 µM (inactive) | 17.7 µM (inactive) | 26.5 | 37.6 µM (inactive) | 22.2 µM (inactive) | 99.8 µM (inactive) | 19.7 µM (inactive) | 31.9 µM (inactive) | 23.3 µM (inactive) | 3.83 µM (inactive)
4 | CC(C)=CCC[C@@H](C)C1=C(O)C(=O)C(C)=C(Nc2ccccc2F)C1=O | 15 µM (inactive) | 9.62 µM (inactive) | 12.5 µM (inactive) | 23.9 µM (inactive) | 3.82 µM (inactive) | 9.77 µM (inactive) | 38.6 µM (inactive) | 12.7 µM (inactive) | 10.2 µM (inactive) | 14.6 µM (inactive) | 5.68 µM (inactive) | 5.2 | 17.9 µM (inactive) | 21.1 µM (inactive) | 15.2 µM (inactive) | 23.4 µM (inactive) | 4.1 µM (inactive) | 15 µM (inactive) | 12.9 µM (inactive)
5 | Cc1ccc(C(=O)CC(Cl)=C(Cl)Cl)cc1 | – | > 100 µM (inactive) | > 100 µM (inactive) | > 100 µM (inactive) | 25.6 µM (inactive) | > 100 µM (inactive) | > 100 µM (inactive) | 78.5 µM (inactive) | > 100 µM (inactive) | 50.6 µM (inactive) | 20.5 µM (inactive) | 67.1 | 85.5 µM (inactive) | > 100 µM (inactive) | > 100 µM (inactive) | > 100 µM (inactive) | 45.6 µM (inactive) | 63.2 µM (inactive) | > 100 µM (inactive)
6 | C=C(C)C(=O)O[C@@H]1C/C(C)=C\[C@H](OC(C)=O)C[C@](C)(O)/C=C2/OC(=O)C(COC(C)=O)=C21 | 0.783 µM (active) | 2.15 µM (inactive) | 1.09 µM (active) | 2.37 µM (inactive) | 6.76 µM (inactive) | 0.668 µM (active) | 0.251 µM (active) | 0.304 µM (active) | 0.274 µM (active) | 0.834 µM (active) | 0.428 µM (active) | 0.212 | 1.91 µM (inactive) | 0.437 µM (active) | 12.3 µM (inactive) | 0.238 µM (active) | 0.726 µM (active) | 1.93 µM (inactive) | 1.63 µM (inactive)
7 | CSC(SC)=C1CC(=O)Nc2ccccc2C1=O | 63.1 µM (inactive) | 63.7 µM (inactive) | 51.5 µM (inactive) | 91.6 µM (inactive) | > 100 µM (inactive) | > 100 µM (inactive) | 36.8 µM (inactive) | 18.6 µM (inactive) | 37.4 µM (inactive) | 29.9 µM (inactive) | 26.1 µM (inactive) | 36.1 | > 100 µM (inactive) | 22.2 µM (inactive) | > 100 µM (inactive) | 58.2 µM (inactive) | 45 µM (inactive) | > 100 µM (inactive) | 55.1 µM (inactive)
8 | COC(=O)c1n[nH]c(C)c1/N=N/N(C)CCC#N | 16.5 µM (inactive) | 20.8 µM (inactive) | 26.9 µM (inactive) | 15.1 µM (inactive) | 24.9 µM (inactive) | 15.1 µM (inactive) | 29.8 µM (inactive) | 13.3 µM (inactive) | 15.2 µM (inactive) | 14 µM (inactive) | 3.33 µM (inactive) | 14.2 | 12.8 µM (inactive) | 14.7 µM (inactive) | 28.7 µM (inactive) | 13.4 µM (inactive) | 18.7 µM (inactive) | 12.9 µM (inactive) | 0.301 µM (active)
9 | COc1cc2cc(C(=O)Nc3cc4n(n3)-c3ccccc3C4)[nH]c2c(OC)c1OC | 8.79 µM (inactive) | 2.98 µM (inactive) | 1.41 µM (inactive) | 6.73 µM (inactive) | 3.4 µM (inactive) | 6.19 µM (inactive) | 3.72 µM (inactive) | 30.1 µM (inactive) | 1.29 µM (inactive) | 0.883 µM (active) | 1.03 µM (active) | 2.52 | 1.22 µM (inactive) | 2.18 µM (inactive) | 9.48 µM (inactive) | 3.06 µM (inactive) | 2.19 µM (inactive) | 1.24 µM (inactive) | 1.97 µM (inactive)
10 | C/C(=N\Nc1ncnc2ccccc12)c1ccccn1 | 0.026 µM (active) | 0.2 µM (active) | 0.0237 µM (active) | 0.0718 µM (active) | 0.0803 µM (active) | < 0.0177 µM (active) | 0.369 µM (active) | 0.0371 µM (active) | < 0.0315 µM (active) | < 0.0185 µM (active) | < 0.0136 µM (active) | < 0.0197 | 0.0276 µM (active) | 0.25 µM (active) | 0.802 µM (active) | < 0.01 µM (active) | < 0.0166 µM (active) | 10.7 µM (inactive) | 0.0516 µM (active)
11 | O=C1OCC/C1=C/c1ccc(/N=N/c2c(O)ccc3ccccc23)cc1 | 18.2 µM (inactive) | 27.2 µM (inactive) | 21.9 µM (inactive) | 17.7 µM (inactive) | 25.3 µM (inactive) | 19.8 µM (inactive) | 18.9 µM (inactive) | 19.3 µM (inactive) | 15.6 µM (inactive) | 39.4 µM (inactive) | 19.5 µM (inactive) | 24.9 | 19.4 µM (inactive) | 27.4 µM (inactive) | 39.4 µM (inactive) | 25.1 µM (inactive) | 18.1 µM (inactive) | 18.6 µM (inactive) | 19.1 µM (inactive)
12 | O=C(CSC1=NCCN1)c1ccccc1 | > 100 µM (inactive) | > 100 µM (inactive) | > 100 µM (inactive) | > 100 µM (inactive) | > 100 µM (inactive) | > 100 µM (inactive) | > 100 µM (inactive) | > 100 µM (inactive) | > 100 µM (inactive) | > 100 µM (inactive) | > 100 µM (inactive) | > 100 | > 100 µM (inactive) | > 100 µM (inactive) | > 100 µM (inactive) | > 100 µM (inactive) | > 100 µM (inactive) | > 100 µM (inactive) | > 100 µM (inactive)
13 | CCc1nnc(-n2c(C)nc3cc(Cl)ccc3c2=O)s1 | 34.2 µM (inactive) | 28.2 µM (inactive) | 21.3 µM (inactive) | 41.6 µM (inactive) | 21.4 µM (inactive) | 37.8 µM (inactive) | 46.6 µM (inactive) | 47.3 µM (inactive) | 16 µM (inactive) | 27.9 µM (inactive) | 26.3 µM (inactive) | 44.1 | 43.1 µM (inactive) | 27 µM (inactive) | 36.1 µM (inactive) | 24.4 µM (inactive) | 18.7 µM (inactive) | 28.8 µM (inactive) | 31.6 µM (inactive)
14 | O=C1CSSCC(=O)Nc2ccccc2N1 | > 100 µM (inactive) | > 100 µM (inactive) | > 100 µM (inactive) | > 100 µM (inactive) | > 100 µM (inactive) | > 100 µM (inactive) | > 100 µM (inactive) | > 100 µM (inactive) | > 100 µM (inactive) | > 100 µM (inactive) | 55.6 µM (inactive) | > 100 | > 100 µM (inactive) | > 100 µM (inactive) | > 100 µM (inactive) | > 100 µM (inactive) | > 100 µM (inactive) | > 100 µM (inactive) | > 100 µM (inactive)
15 | Nc1ccccc1CCCC(=O)O | > 100 µM (inactive) | > 100 µM (inactive) | > 100 µM (inactive) | > 100 µM (inactive) | > 100 µM (inactive) | > 100 µM (inactive) | > 100 µM (inactive) | > 100 µM (inactive) | > 100 µM (inactive) | > 100 µM (inactive) | > 100 µM (inactive) | > 100 | > 100 µM (inactive) | > 100 µM (inactive) | > 100 µM (inactive) | > 100 µM (inactive) | > 100 µM (inactive) | > 100 µM (inactive) | > 100 µM (inactive)
